The results in this text go back to ChEMBL document CHEMBL4715872, “Soluble Guanylate Cyclase Inhibitors Discovered among Natural Compounds” (J Nat Prod, 2020).

Molecules are shown by their SMILES. The source made the active and inactive calls. The rule behind the calls is not given here. A value given as a limit tells only on which side of the number the result lay.

A short description of assay [1]: Inhibition of human sGC expressed in HUVEC cells assessed as reduction in GMP level incubated for 48 hrs in presence of NPS by ELISA. In kind it is cell-based. Background: In an ELISA, binding on a coated surface is turned into a signal by an enzyme label.
Assay [2] can be described thus: Inhibition of bovine lung sGC assessed as reduction in GMP level incubated for 48 hrs in presence of NPS by ELISA. In kind it is tissue-based, Bos taurus.
The test system of assay [3] is HUVEC. The assay is described as follows: Inhibition of full length human sGC expressed in HUVEC cells assessed as increase in oxidation of heme at 20 uM after 2 hrs by spectroscopic analysis. It counts as cell-based.
A short description of assay [4]: Inhibition of human sGC expressed in HUVEC cells assessed as reduction in GMP level incubated for 48 hrs by ELISA. In kind it is cell-based.
The species named for another assay is Bos taurus. The assay is described as follows: Selectivity ratio of IC50 for inhibition of bovine lung sGC assessed as reduction in GMP level in presence of NPS/BAY-412272 to IC50 for inhibition of bovine lung sGC assessed as reduction in GMP level in presence of NPS. It counts as tissue-based.
The nature of assay [5]: Inhibition of bovine lung sGC assessed as reduction in GMP level incubated for 2 hrs in presence of NPS/BAY-412272 by ELISA. In kind it is tissue-based, Bos taurus.
Assay [6] in a line: Inhibition of bovine lung sGC assessed as reduction in GMP level incubated for 2 hrs in presence of BAY-412272 by ELISA. It counts as tissue-based, Bos taurus.
Assay [7] is described as follows: Inhibition of human sGC expressed in HUVEC cells assessed as reduction in GMP level incubated for 24 hrs in presence of NPS by ELISA. In kind it is cell-based.
Assay [8] can be described thus: Inhibition of human sGC expressed in HUVEC cells assessed as reduction in GMP level incubated for 24 hrs by ELISA. In kind it is cell-based.
Assay [9] is described as follows: Inhibition of bovine lung sGC assessed as reduction in GMP level incubated for 2 hrs in presence of NPS by ELISA. It counts as tissue-based, Bos taurus.
Assay [10] is described as follows: Inhibition of bovine lung sGC assessed as reduction in GMP level incubated for 2 to 12 hrs in presence of NPS by ELISA. In kind it is tissue-based, Bos taurus.
Assay [11] in a line: Inhibition of angiogenesis in HEPC-CB1 cells assessed as decrease in total length of pseudovessels at 10 to 20 uM after 13 hrs by fluorescence inverted microscopic analysis. In kind it is functional, Homo sapiens, HEPC-CB.1. The following applies: dose 10-20 µM.
Assay [12] is described as follows: Inhibition of angiogenesis in HEPC-CB1 cells assessed as decrease in number of closed structures at 10 to 20 uM after 13 hrs by fluorescence inverted microscopic analysis. The following applies: dose 10-20 µM. In kind it is functional, Homo sapiens, HEPC-CB.1.
Assay [13] is described as follows: Inhibition of angiogenesis in HEPC-CB1 cells assessed as decrease in pseudovessels at 10 to 20 uM after 13 hrs by fluorescence inverted microscopic analysis. In kind it is functional, Homo sapiens, HEPC-CB.1. The following applies: dose 10-20 µM.
For assay [14], the system named is HEPC-CB.1. The assay is described as follows: Inhibition of angiogenesis in HEPC-CB1 cells assessed as decrease in number of closed structures at 10 uM after 13 hrs by fluorescence inverted microscopic analysis. The following applies: Homo sapiens. It counts as functional, cell-based.
For assay [15], the system named is HUVEC. The assay is described as follows: Selectivity ratio of inhibition of human sGC expressed in HUVEC cells assessed as reduction in GMP level at 20 uM in presence of NPS to inhibition of human sGC expressed in HUVEC cells assessed as reduction in GMP level at 20 uM in presence of NPS/BAY-412272. In kind it is cell-based.
In assay [16] the test system is HUVEC. The assay is described as follows: Inhibition of human sGC expressed in HUVEC cells assessed as reduction in GMP level at 2 uM in presence of NPS by ELISA relative to control. In kind it is cell-based.
The subject of assay [17] is HUVEC. The assay is described as follows: Selectivity ratio of IC50 for inhibition of human sGC expressed in HUVEC cells assessed as reduction in GMP level incubated for 2 hrs to human sGC expressed in HUVEC cells assessed as reduction in GMP level incubated for 2 hrs in presence of NPS. It counts as cell-based.
The subject of assay [18] is HEPC-CB.1. The assay is described as follows: Inhibition of angiogenesis in HEPC-CB1 cells assessed as decrease in pseudovessels at 10 uM after 13 hrs by fluorescence inverted microscopic analysis. In kind it is functional, cell-based. The following applies: Homo sapiens.
A short description of assay [19]: Inhibition of human sGC expressed in HUVEC cells assessed as reduction in GMP level incubated for 2 hrs by ELISA. It counts as cell-based.
Assay [20] concerns HUVEC. The assay is described as follows: Selectivity ratio of inhibition of human sGC expressed in HUVEC cells assessed as reduction in GMP level at 2 uM in presence of NPS to inhibition of human sGC expressed in HUVEC cells assessed as reduction in GMP level at 2 uM in presence of NPS/BAY-412272. In kind it is cell-based.
The subject of assay [21] is HEPC-CB.1. The assay is described as follows: Inhibition of angiogenesis in HEPC-CB1 cells assessed as decrease in total length of pseudovessels at 10 uM after 13 hrs by fluorescence inverted microscopic analysis. It counts as functional, cell-based. The following applies: Homo sapiens.
In assay [22] the test system is HUVEC. The assay is described as follows: Inhibition of human sGC expressed in HUVEC cells assessed as reduction in GMP level at 20 uM in presence of NPS/BAY-412272 by ELISA relative to control. It counts as cell-based.
The nature of assay [23]: Inhibition of rat small intestine GST using CDNB as substrate by spectrophotometric method. In kind it is tissue-based.
In assay [24] the target is T1, Dopamine beta-hydroxylase (Homo sapiens, UniProt P09172).
T1 sequence (P09172 whole entry): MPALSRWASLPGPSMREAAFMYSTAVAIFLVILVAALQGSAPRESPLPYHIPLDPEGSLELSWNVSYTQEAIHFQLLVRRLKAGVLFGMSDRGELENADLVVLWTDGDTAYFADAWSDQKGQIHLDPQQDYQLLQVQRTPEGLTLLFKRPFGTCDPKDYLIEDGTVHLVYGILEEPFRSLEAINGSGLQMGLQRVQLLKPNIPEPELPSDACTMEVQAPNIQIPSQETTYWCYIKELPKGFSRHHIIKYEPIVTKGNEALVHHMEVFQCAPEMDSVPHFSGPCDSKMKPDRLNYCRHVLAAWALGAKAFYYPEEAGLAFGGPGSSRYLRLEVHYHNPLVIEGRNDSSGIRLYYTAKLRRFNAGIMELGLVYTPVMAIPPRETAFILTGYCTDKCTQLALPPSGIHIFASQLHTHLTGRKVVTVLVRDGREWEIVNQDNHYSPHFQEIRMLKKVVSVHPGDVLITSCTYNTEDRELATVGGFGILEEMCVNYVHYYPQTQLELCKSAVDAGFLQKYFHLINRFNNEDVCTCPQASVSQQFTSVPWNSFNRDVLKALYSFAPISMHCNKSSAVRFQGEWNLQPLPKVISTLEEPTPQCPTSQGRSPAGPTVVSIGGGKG
The assay is described as follows: Inhibition of Dopamine beta-hydroxylase (unknown origin) incubated for 10 mins.

For assay [25], the system named is HEPC-CB.1. The assay is described as follows: Inhibition of angiogenesis in HEPC-CB1 cells assessed as decrease in pseudovessels at 20 uM after 13 hrs by fluorescence inverted microscopic analysis. It counts as functional, cell-based. Conditions: Homo sapiens.
Assay [26] has as its system HEPC-CB.1. The assay is described as follows: Inhibition of angiogenesis in HEPC-CB1 cells assessed as decrease in total length of pseudovessels at 20 uM after 13 hrs by fluorescence inverted microscopic analysis. Conditions: Homo sapiens. It counts as functional, cell-based.
The test system of assay [27] is HEPC-CB.1. The assay is described as follows: Inhibition of angiogenesis in HEPC-CB1 cells assessed as decrease in number of closed structures at 20 uM after 13 hrs by fluorescence inverted microscopic analysis. In kind it is functional, cell-based. The following applies: Homo sapiens.
Assay [28] in a line: Inhibition of Yersinia pestis FabZ.
Another assay concerns Hepatocyte. The assay is described as follows: Cytotoxicity against rat hepatocytes assessed as induction intracellular LDH release incubated for 8 to 24 hrs. In kind it is cell-based. Background: LDH leaks from cells whose membrane has failed.
Assay [29] can be described thus: Inhibition of Francisella tularensis FabZ.

What is called IC50 is the point on the concentration scale where inhibition reaches its midpoint. What is called inhibition is the share of the control response that was lost under treatment. As to `O=C1C(O)=C(O)C(=O)c2c(O)c(Cl)cc(O)c21`, the IC50 in assay [1] was determined as 13 µM; in [2], 3 µM; in assay [4], 12 µM. Also, the inhibition entry in the assay on HUVEC [3] was “inactive”.

On to `COc1cc(C/C=C/c2ccccc2)c(OC)cc1O` [VIOLASTYRENE], for which the Ratio IC50 in the assay filed under Bos taurus is 2. In addition, the IC50 in assay [5] was 1.8 µM; in assay [6], 4.9 µM; in [7], 16 µM; in assay [8] it was 16 µM; in [9], 0.8 µM; in assay [10], 0.8 µM. In addition, in the assay on HUVEC [3], the inhibition entry was “Active”.

For `O=C1C(O)=C(O)C(=O)c2c(O)ccc(O)c21`, the “fold change (FC)” value in [11], in assay [12] and in assay [13] was 2 throughout. Moreover, the IC50 came to 10 µM in assay [1], 5 µM in assay [2] and 12 µM in assay [4]. The inhibition entry in the assay with HUVEC [3] is “inactive”.

Take `COc1c(O)c2c(=O)cc(OC)c3c4c(OC)cc(O)c5c(=O)c(OC)c6c(c(c1[C@H](C(C)=O)[C@](C)(O)C6)c23)c54`: the inhibition result in the assay with HEPC-CB.1 [14], in the assay with HEPC-CB.1 [18] and in the assay on HEPC-CB.1 [21] was “Active” throughout. Moreover, the Ratio IC50 stood at 2 in the assay on HUVEC [15], 2 with HUVEC [17] and 3 in the assay on HUVEC [20]. Besides, the IC50 in assay [7] turned out to be 1.5 µM; in assay [19] it was 0.8 µM; in assay [9], 1.5 µM; in [10], 1.5 µM. Besides, in the assay with HUVEC [16], the inhibition is below 95%.

Broadly, the Ki is the equilibrium dissociation constant of an inhibitor or competing ligand from its target. A lower Ki goes with higher affinity. On to `Cc1cc(O)c2c(=O)c3c(O)cc(O)c4c5c(O)cc(O)c6c(=O)c7c(O)cc(C)c8c1c2c(c34)c(c78)c65` [HYPERICIN], for which the inhibition entry in the assay on HEPC-CB.1 [14], with HUVEC [22], with HEPC-CB.1 [18] and in the assay on HEPC-CB.1 [21] was “Active” in each case. For the same molecule, the IC50 turned out to be 0.35 µM in assay [5]; 0.32 µM in [6]; 0.7 µM in assay [7]; 0.4 µM in assay [19]; 21 µM in assay [24]; 0.4 µM in assay [9]. In addition, in [10], the 50% inhibitory concentration (IC50) turned out to be 0.2 µM. Further, in the assay on HUVEC [16], the inhibition is below 95%. The same molecule gave a Ki in assay [23] of 0.2 µM. Moreover, the Ratio IC50 in the assay on HUVEC [17] was found to be 2; with HUVEC [20], 3.

For the molecule `CC(=O)OC1=C(O)C(=O)c2c(OC(C)=O)ccc(OC(C)=O)c2C1=O`, the Ratio IC50 in the assay filed under Bos taurus worked out at 2. In addition, the IC50 in assay [5] was found to be 1 µM; in assay [6], 1.4 µM; in assay [7] it was 28 µM; in assay [8] it was 29 µM; in assay [9], 0.5 µM; in assay [10] it was 0.2 µM. Also, the inhibition result in the assay on HUVEC [3] is “Active”.

Consider `COc1cc(C)c2c(c1C=O)Oc1c(c(C)c(O)c3c1C(O)OC3=O)OC2=O` (configuration not stated) [STICTIC ACID], for which the inhibition result in the assay on HEPC-CB.1 [25], in the assay on HEPC-CB.1 [26] and in the assay on HEPC-CB.1 [27] was “Active” in each case. In addition, the IC50 is 13 µM in assay [28]; 2.5 µM in assay [5]; 2.6 µM in assay [6]; 47 µM in [7]; at most 13 µM with Hepatocyte; 44 µM in assay [8]. The IC50 in assay [9] was determined as 0.3 µM; in [10] it was 0.2 µM; in assay [29], 13 µM. For the same molecule, the Ratio IC50 in the assay filed under Bos taurus amounted to 2. In addition, in the assay on HUVEC [3], the inhibition result is “inactive”.
